# Measurements as given in patent publication US20120010229A1, “THERAPEUTIC REGIMENS FOR HEDGEHOG-ASSOCIATED CANCERS” (priority 2010, published 2012).
# Key:
# D473H SMO mutant = target: T1, D473H SMO mutant (Homo sapiens, UniProt Q99835, D473H); test: Gli-luciferase reporter assay, C3H10T1/2 cells transfected with D473H SMO; assay type: cell-based, mouse
# T1 construct: expressed in transfected cells; host or cells: C3H10T1/2 cells (ATCC CCL-226), mouse
# Experimental: Wild type human SMO was subcloned into pcDNA3.1 from an expression construct in pCMV6 (Origene #SC122724). D473H SMO was then generated by site-directed mutagenesis using the Stratagene QuikChange kit (Agilent #200519) and sequence verified.
# Gli-Luciferase reporter assays were performed as described. (Yauch et al. (2009) Science 326: 572-574) Briefly, C3H10 T1/2 cells (ATCC, #CCL-226) were plated in six-well plates at 1×10 to 5th cells per well in BME (Gibco #21010) with 10% FBS (Hyclone #SH30070.03), 2 mM Glutamine (Gibco #25030) and 50 units penicillin/50 ug streptomycin (Gibco #15140). The next morning, cells were transfected with 400 ng SMO expression construct, 400 ng 8× Gli-Luc, and 200 ng pRL-TK per well with GeneJuice transfection reagent (Novagen #70967). Cells in each well were lifted six hours later and replated into four wells of a 12 well plate and allowed to attach overnight. Medium was then changed to low (0.5%) serum and compounds were added in quadruplicate in a range of concentrations. After a 48 hour incubation, firefly and renilla luciferase were assayed using the Promega Dual-Glo Luciferase Assay System (Promega #E2940) and ratios were used to determine percent of control using Prism graphing software.
# Gli1 = Gli1 mRNA by RT-PCR in Ptc^C/C tumors; assay type: in vivo, mouse; conditions: for suppression of Gli1 levels vs vehicle: daily 20 mg/kg/dose; for reduction in Gli1 mRNA levels: single dose
# Experimental: Pharmacodynamic activity of IPI-926 in Ptc^C/C tumors was confirmed by analysis of Gli1 mRNA by RT-PCR. Mice were treated daily with 20 mg/kg/dose IPI-926 for 2 days, 2 weeks or 6 weeks and tumor tissue isolated and snap frozen 24 hours after the last dose. Total RNA was extracted using the Qiagen RNeasy Plus Kit and converted to cDNA using the Taqman Reverse Transcription kit (ABI). Quantitative Real Time PCR was set up using Taqman Master Mix and run on the Applied Biosystems 7300HT Real-Time PCR (384-well qPCR) System. Taqman primers for mouse Gli1 and Gapdh controls were used (ABI). Data was analyzed using SDS2.3 software (ABI). All conditions were run in triplicate and normalized to mouse Gapdh controls. Expression of IPI-926 treated (n=3 per time point) samples were normalized to vehicle control (n=3 per time point) samples.
# In initial studies in the Ptc^C/C mice intracranial pressures were sufficiently high in some mice that brainstem herniation into the spinal canal and subsequent death occurred by tipping the head back for gavage feeding. Pharmacodynamic studies were conducted with intraperitoneal (IP) drug injection as well as oral gavage to see whether the IP route offered a safe and effective alternative to gavage drug administration. Both oral and IP routes induced approximately 90% reduction in Gli1 mRNA levels (FIG. 14), so IP administration was used for all subsequent studies.
# Phase 1 clinical trial = assay type: in vivo
# [1] = system: LX22 primary small cell lung tumor; test: LX22 primary small cell lung cancer xenograft, post etoposide/carboplatin; assay type: in vivo, mice
# Experimental: FIG. 1 is a series of line graphs showing the effect in tumor size (mm^3) as a function of days of treatment of mice having an LX22 primary small cell lung tumor with IPI-926 alone (“IPI-926”), etoposide/carboplatin followed by vehicle control (“E/P→Vehicle”), E/P followed by IPI-926 (“E/P→IPI-926”) and vehicle control. Mice were treated for 5 weeks total with IPI-926 follow-up treatment at 40 mg/kg PO QD.
# Briefly, LX22 primary small cell lung model was treated with 1.5 cycles of etoposide/carboplatin (E/P). Administration of IPI-926 was initiated 24 hours after the last dose of chemotherapy. In the normal course of these studies, IPI-926 was administered […].
# The effect of delaying the onset of IPI-926 administration following chemotherapy was further characterized. […] FIG. 2 is a linear graph depicting the effect in tumor size as a function of time of chemotherapy treatment and following with IPI-926 treatment on day 5 (D5) and day 15 (D15) following chemotherapy treatment. Thus, a narrow window of intervention is necessary to maximize the beneficial effects of IPI-926 in tumor inhibition following chemotherapy.
# T1 sequence (Q99835 28-787 D473H): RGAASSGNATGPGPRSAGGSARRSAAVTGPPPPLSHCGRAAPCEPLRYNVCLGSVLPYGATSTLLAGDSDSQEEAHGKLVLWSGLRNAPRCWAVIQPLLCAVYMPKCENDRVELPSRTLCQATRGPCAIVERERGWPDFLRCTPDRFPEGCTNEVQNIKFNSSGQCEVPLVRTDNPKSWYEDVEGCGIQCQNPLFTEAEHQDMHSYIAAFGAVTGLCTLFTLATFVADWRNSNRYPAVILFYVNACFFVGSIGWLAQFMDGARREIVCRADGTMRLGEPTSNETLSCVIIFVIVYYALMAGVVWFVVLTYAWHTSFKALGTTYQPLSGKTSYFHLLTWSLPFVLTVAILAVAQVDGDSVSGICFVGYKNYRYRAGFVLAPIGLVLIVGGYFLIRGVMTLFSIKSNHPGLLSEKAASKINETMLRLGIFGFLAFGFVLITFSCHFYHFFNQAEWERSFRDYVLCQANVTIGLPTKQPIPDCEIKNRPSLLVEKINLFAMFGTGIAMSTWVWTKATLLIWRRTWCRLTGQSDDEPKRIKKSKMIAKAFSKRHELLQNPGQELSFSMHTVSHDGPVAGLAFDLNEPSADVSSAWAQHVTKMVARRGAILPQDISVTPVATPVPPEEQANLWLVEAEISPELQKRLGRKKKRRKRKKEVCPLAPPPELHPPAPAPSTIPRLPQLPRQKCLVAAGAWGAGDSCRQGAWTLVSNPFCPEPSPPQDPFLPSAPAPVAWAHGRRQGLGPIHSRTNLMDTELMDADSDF
smiles,measurement,setting,value
CC1=C2C[C@H]3[C@@H](CC[C@@H]4C[C@H](NS(C)(=O)=O)CC[C@@]43C)[C@@H]2CC[C@@]2(C1)O[C@@H]1C[C@H](C)CN[C@H]1[C@H]2C [IPI-926],IC50,D473H SMO mutant,244 nM
same,suppression of Gli1 levels vs vehicle,Gli1; after 2 weeks of therapy,60%
same,suppression of Gli1 levels vs vehicle,Gli1; after 6 weeks of therapy,30%
same,suppression of Gli1 levels vs vehicle,Gli1; after 2 days of therapy,90%
same,reduction in Gli1 mRNA levels,Gli1; intraperitoneal injection,approximately 90%
same,reduction in Gli1 mRNA levels,Gli1; oral gavage,approximately 90%
same,clinical activity,Phase 1 clinical trial,demonstrated clinical activity
same,tolerability,Phase 1 clinical trial,well-tolerated
same,tumor re-growth following cyto-reductive chemotherapy,"[1]; E/P then IPI-926 40 mg/kg PO QD, started 24 hours after last chemotherapy dose",inhibitory effect on the re-growth of tumors
same,tumor growth inhibition with delayed onset of administration,[1]; IPI-926 administration delayed by 5 or 14 days after chemotherapy,loss of the IPI-926 effect in tumor growth inhibition
same,expression of stromal marker murine Gli-1,"[1]; tumors after chemotherapy, vs vehicle-treated",inhibited
